Test results published in patent EP2921179A1, “Micellar nanoparticles containing antitumoral glycosides” (Fundación Centro Nacional de Investigaciones …, priority 2014, dated 2015).
Like-named read-outs stand apart in the source and are kept apart here.

What was measured:
[1] = system: A549 cell line; test: MTT assay, inhibition of A549 tumor cell proliferation; assay type: cell-based, Human; details: 48 h treatment, read-out: ID50 (µM) A549
Procedure: Human A549 cell line and C6 rat glioma cell line were maintained in Dulbecco's modified Eagle's medium (DMEM) complete medium (Sigma-Aldrich, St. Louis, MO), supplemented with fetal bovine serum (FBS, 10%; GLinus, Madrid, Spain), glutamine (2 mM), penicillin (50 IU/mL), and streptomycin ([…]), at 37 °C in a 5% CO2 humidified atmosphere. Exponentially growing cells were seeded on 96-well plates (Beckton Dickinson, Le Pont de Claix, France), in DMEM complete medium, at a density of 1.5 x 10^4 cells/well for C6 cell and 5 x 10^3 cells/well for A549 cells respectively. The cells were allowed to attach with 5% of CO2 at 37°C for overnight, and then, to serum starve the cells, the medium was replaced by 100 µL of fresh DMEM without FBS and maintained overnight. Stock solutions in EtOH of the glycoside derivatives of formula (I) of Example 2 (50 mM) or stock solutions in PBS of the micelles of Example 3 were finally dissolved in DMEM complete medium for the treatments. The cells were treated with serial dilutions of glycoside derivatives of formula (I) of Example 2 or micelles of Example 3 for 48 h. For the experiments with micelles of Example 3, some 96-well plates were placed over a MagnetoFACTOR-96 device (Chemicell) to produce a strong magnetic field to each well and increase the proximity of the nanoparticles to the cells. Also, iron oxide nanoparticles coated with azelaic acid were tested (Azelaic-NP, obtained as described in Chemistry - A European Journal, 2008, 14 (30), 9126-9130) Cell proliferation was evaluated with an MTT assay (Sigma-Aldrich), based on the conversion of the water-soluble MTT into an insoluble formazan. Briefly, after 48 h of compound treatment, the medium was replaced by 100 µL of fresh DMEM without phenol red containing MTT (5 mg/mL) solution, and cells were incubated for additional 3 h at 37 °C with 5% CO2. After this time, the medium was removed, the precipitated formazan was dissolved in 100 µL of DMSO, and the solution optical density was measured at 595 nm in Spectramax Plus equipment (Molecular Devices Corporation). […]

[2] = system: C6 rat glioma cell line; test: MTT assay, inhibition of C6 tumor cell proliferation; assay type: cell-based; details: for IC50: free glycoside derivative, 48 h treatment, MTT, read-out: ID50 (µM) C6
Procedure: Human A549 cell line and C6 rat glioma cell line were maintained in Dulbecco's modified Eagle's medium (DMEM) complete medium (Sigma-Aldrich, St. Louis, MO), supplemented with fetal bovine serum (FBS, 10%; GLinus, Madrid, Spain), glutamine (2 mM), penicillin (50 IU/mL), and streptomycin ([…]), at 37 °C in a 5% CO2 humidified atmosphere. Exponentially growing cells were seeded on 96-well plates (Beckton Dickinson, Le Pont de Claix, France), in DMEM complete medium, at a density of 1.5 x 10^4 cells/well for C6 cell and 5 x 10^3 cells/well for A549 cells respectively. The cells were allowed to attach with 5% of CO2 at 37°C for overnight, and then, to serum starve the cells, the medium was replaced by 100 µL of fresh DMEM without FBS and maintained overnight. Stock solutions in EtOH of the glycoside derivatives of formula (I) of Example 2 (50 mM) or stock solutions in PBS of the micelles of Example 3 were finally dissolved in DMEM complete medium for the treatments. The cells were treated with serial dilutions of glycoside derivatives of formula (I) of Example 2 or micelles of Example 3 for 48 h. For the experiments with micelles of Example 3, some 96-well plates were placed over a MagnetoFACTOR-96 device (Chemicell) to produce a strong magnetic field to each well and increase the proximity of the nanoparticles to the cells. Also, iron oxide nanoparticles coated with azelaic acid were tested (Azelaic-NP, obtained as described in Chemistry - A European Journal, 2008, 14 (30), 9126-9130) Cell proliferation was evaluated with an MTT assay (Sigma-Aldrich), based on the conversion of the water-soluble MTT into an insoluble formazan. Briefly, after 48 h of compound treatment, the medium was replaced by 100 µL of fresh DMEM without phenol red containing MTT (5 mg/mL) solution, and cells were incubated for additional 3 h at 37 °C with 5% CO2. After this time, the medium was removed, the precipitated formazan was dissolved in 100 µL of DMSO, and the solution optical density was measured at 595 nm in Spectramax Plus equipment (Molecular Devices Corporation). Absorption values were referred to positive proliferation controls (cells cultured in DMEM complete medium) and negative proliferation controls cells cultured in DMEM without FBS). Inhibition was expressed as an ID50 value, the compound concentration that reduced maximal proliferation by 50%, and the results are shown in Table 3. Table 3. Biological activity of glycoside derivatives of formula (I) and micelles comprising said glycoside derivatives.

[3] = Solubility / stability in water; assay type: physicochemical; details: pure water, observed by eye
Excerpt: For GC-22 and TFA-GC22, the glycosides alone are not soluble in pure water, while the micelles GC-22-NPs and TFA-GC22-NPs are stable in the aqueous phase. Precipitate of GC-22 and TFA-GC22 can be observed by eye straight away in a pure water solution and no re-dispersion is produced when the aqueous micellar solution is mixed with an organic solvent selected from the group consisting of dichloromethane, chloroform, hexane, heptane, toluene, in a volume proportion of 1:1.

[4] = Homo sapiens, A549, free glycoside derivative

SMILES	IC50 [1, 4] [µM]	IC50 ([2]; Rattus norvegicus, Glioma cell) [µM]	solubility in water [3]	IC50 ([1]; free glycoside derivative) [µM]	IC50 [2] [µM]	inhibition of proliferation of C6 tumor cells ([2]; result in words)
CCCCCCCC/C=C\CCCCCCCCO[C@H]1O[C@H](CO)[C@@H](O)[C@H](O)[C@H]1NC(C)=O [GC22, Oleyl 2-acetamido-2-deoxy-α-D-glucopyranoside]	10	15.5 ± 0.3	not soluble			
CCCCCCCC/C=C\CCCCCCCCO[C@H]1O[C@H](COS(=O)(=O)[O-])[C@@H](O)[C@H](O)[C@H]1NC(C)=O.[K+] [IG20, Oleyl 2-acetamido-2-deoxy-6-O-(oxosulfonyl)-α-D-glucopyranoside potassium salt]			soluble in water	97	> 100	did not show inhibition
CCCCCCCC/C=C\CCCCCCCCO[C@H]1O[C@H](CO)[C@@H](O)[C@H](O)[C@H]1NC(=O)C(F)(F)F [TFAGC22, Oleyl2-deoxy-2-trifluoroacetamido-α-D-glucopyranoside]	8.6	14.2 ± 0.3	not soluble			
